In patent US9375457B2, “Composition comprising Rhizoma coptidis, Cortex phellodendri and Fructus gardeniae and for treating neurodegenerative diseases” (Hong Kong Baptist University, priority 2013, dated 2016):

How the values were obtained:
[1] = system: TgCRND8 mice; assay: Tolerability of chronic oral administration in TgCRND8 mice; type: in vivo; settings: 25 mg/kg per day, nearly 3 months
Excerpt: All animal handling experiments were approved by the Hong Kong Baptist University Committee on the Use of Human and Animal Subjects in Teaching and Research (HASC, approval #: 12-13/0030). TgCRND8 mice expressing human APP with Swedish (K670N/M671L) and Indiana (V717F) mutations were used to evaluate the effect of baicalein on Aβ. Heterozygous TgCRND8 mice on a C57BL/6J background were used to breed a colony of experimental animals. The TgCRND8 mouse is an early onset model of AD with visible Aβ deposits in the brains of the animals starting from 3 months of age as described in Chishti M A, Yang D S, Janus C, Phinney A L, Home P, Pearson J, Strome R, Zuker N, Loukides J, French J, Turner S, Lozza G, Grilli M, Kunicki S, Morissette C, Paquette J, Gervais F, Bergeron C, Fraser P E, Carlson G A, George-Hyslop P S, Westaway D. (2001) Early-onset amyloid deposition and cognitive deficits in transgenic mice expressing a double mutant form of amyloid precursor protein 695. J Biol Chem 276: 21562-21570. The animals are housed in a controlled environment under a 12/12 hours light/dark cycle. They are allowed free access to food and water. The oral administration of baicalein (25 mg/kg/d) is commenced at 2 months of age and ended at 5 months before being killed. […]

[2] = system: APP processing (F1-APP, pAPPThr668, CTFs, sAPPα, sAPPβ-sw) in N2a-SwedAPP cells; assay: Western blot of APP metabolic products in N2a-SwedAPP cells; type: cell-based, murine; design: key to Fl-APP (overall influence) / CTFs (overall influence) / sAPPα (overall influence) / sAPPβ (overall influence): ↓ decreased; ↑ increased; ? unchanged
Description: N2a-SwedAPP cells were obtained from Dr. Gopal Thinakaran (University of Chicago, Chicago, Ill., USA). N2a-SwedAPP cells were cultured in Dulbecco's modified Eagle's medium (DMEM) and OPTI-MEM medium in a 1:1 ratio with 5% FBS, 50 μg/mL penicillin, 50 μg/mL streptomycin and 200 μg/mL G418 as previously described in Thinakaran G, Teplow D B, Siman R, Greenberg B, Sisodia S S (1996) Metabolism of the “Swedish” amyloid precursor protein variant in neuro2a (N2a) cells. J Biol Chem 271: 9390-9397. N2a-SwedAPP cells were incubated at 37° C. in a 5% CO2/95% humidity incubator. Cells were seeded 24 hours prior to the treatments. When growth reached close to 90% of confluence, cells were transferred into DMEM with 1% FBS for loading extracts. The final concentration of DMSO in all experiments was 0.1%, and this concentration caused no cytotoxicity.
To detect the levels of APP metabolic products, the cell lysates and the conditioned media were prepared as described in Durairajan S S K, Liu L F, Lu J H, Koo I, Maruyama K, Chung S K, Huang J D, Li M. (2011) Stimulation of non-amyloidogenic processing of amyloid-β protein precursor by cryptotanshinone involves activation and translocation of ADAM10 and PKC-α. J Alzheimer's Dis 25: 245-262, with minor modification. N2a-SwedAPP cells were seeded at a density of 4×10^5/mL in DMEM medium in a 6-well plate and cultured for 1 day. After transfer, cells were treated with different doses of RC, CP, FG and RS for 48 hours, then the extracellular media were collected for detection of sAPPα and sAPPβ-sw, and cells were harvested to quantify F1-APP and β-actin by Western blot analysis, as described previously by Durairajan et al. For intracellular APP, APP-CTFs and Aβ preparation, cells were washed with ice-cold PBS twice and solubilized in ice-cold RIPA buffer with protease inhibitor cocktail added. Lysates were collected and centrifuged at 16,000×g for 15 minutes at 4° C. The resulting supernatants were collected, and their protein concentrations were determined with bicinchoninic acid (BCA) protein assay reagent (Thermo Scientific, IL, USA). For sAPPα and sAPPβ-sw detection, the conditioned media are collected and frozen in liquid nitrogen, subjected to lyophilization at −40° C. under vacuum of 105 μbar for 2 days in order to remove all liquid. The conditioned media were standardized to total cell lysate protein.
For Western blot analysis from cell culture or mouse brain, 10-30 μg total protein is separated on 10% and 15% SDS-PAGE gels and blotted onto PVDF membranes for the detection of full length APP (F1-APP), CTFs, sAPPα, sAPPβ-sw, 3-actin and phosphorylated APP (pAPPThr668). After blocking with 5% skimmed milk, the blots are incubated with primary antibodies overnight at 4° C. with shaking. Blots are washed and incubated with HRP-conjugated secondary antibodies. The goat anti-mouse IgG is used when the primary antibody is 6E10 (1:1000), sAPPβ-sw (1:100), or anti-β-actin (1:5000), and the goat anti-rabbit IgG is used when the primary antibody is anti-CT15 (1:5000) or pAPPThr668 (1:1000). After incubation with HRP-conjugated secondary antibody, immunoblots are treated with ECL and developed using X-ray films (Fujifilm). Films are scanned, and the band intensity is analyzed using Image J software (NIH Image).
Stripped CT15 and 6E10 probed membranes are reincubated with pAPPThr668 and sAPPβ-sw 6A1 antibodies, respectively.
Western blotting of N2a-SwedAPP cells is used to test differences in the processing of Swedish mutant APP by HLJDT components. Several antibodies are used in Western blot analysis: CT15 recognizes full length APP (F1-APP), 6E10 identifies only α-secretase-cleaved APP i.e sAPPα, and the sAPPβ-sw specific for β-secretase cleavage of Swedish mutant APP.

O=c1cc(-c2ccccc2)oc2cc(O)c(O)c(O)c12 [baicalein]
adverse side effects [1]: nor did it cause any notable adverse side effects | change of animal body weight [1]: did not significantly change | maximal increase of CTFs, fold of basal release ([2]; 12.5 μM, 48 hours): 2.36 fold | maximal increase of F1-APP, fold of basal release ([2]; 12.5 μM, 48 hours): 1.68 fold | maximal increase of pAPPThr668, fold of basal release ([2]; 12.5 μM, 48 hours): 1.58 fold | maximal secretion of sAPPα, fold of basal release ([2]; 12.5 μM, 48 hours): 2.65 fold | maximal secretion of sAPPβ-sw, fold of basal release ([2]; 12.5 μM, 48 hours): 1.70 fold | CTFs (overall influence) ([2]; N2a-SwedAPP cells): ↑ | Fl-APP (overall influence) ([2]; N2a-SwedAPP cells): ↑ | sAPPα (overall influence) ([2]; N2a-SwedAPP cells): ↑ | sAPPβ (overall influence) ([2]; N2a-SwedAPP cells): ↑
